Data published in US8334261B2, “Osteopenia animal model” (Oriental Yeast Co., Ltd., priority 2006, dated 2012).

Key:
Format in all cases: in vivo, mouse
[1] = test system: GST-RANKL-administered 7-week-old female C57BL/6N mice; test: Evaluation of a bone mass increase with low-dose PTH in GST-RANKL mice
Protocol: GST-RANKL was intraperitoneally administered 2 times to groups of 7-week-old female C57BL/6N mice at 1 mg/kg every 24 hours. PTH was subcutaneously administered thereto at 40 or 80 μg/kg from 24 hours after the 2nd administration every 24 hours for 10 consecutive days. In addition, PBS was administered to a group serving as the control group for the GST-RANKL and PTH administration groups for comparison. The serum and femur were collected from each mouse 24 hours after the end of administration for 10 days.
The serum collected from each mouse was subjected to measurement of serum bone resorption markers (Ca and TRAP-5b) and an osteogenesis marker (ALP). Each femur was subjected to measurement of the total bone density, the cortical bone density, the cortical bone thickness, the cortical bone mineral content, and the cortical bone density in the diaphysis with pQCT at points 0.6, 0.8, and 1.0 mm […] the distal growth plate on the proximal side. In addition, image analysis was carried out with micro CT.

[2] = test system: 7-week-old female C57BL/6N mice; test: Evaluation of a bone mass increase with PTH (GST-RANKL, ovariectomy)
Protocol: GST-RANKL was administered twice to groups of 7-week-old female C57BL/6N mice at 1 mg/kg every 24 hours. Ovariectomy was performed 24 hours after the 2nd administration. In addition, parathyroid hormone (PTH) was subcutaneously administered thereto at 160 μg/kg from 24 hours after the ovariectomy for 10 consecutive days. Further, a group obtained by PBS administration and sham operation (Sham) was designated as a control group for comparison. The serum markers and the femur bone density were measured.

[3] = test system: GST-RANKL-administered 7-week-old female C57BL/6N mice; test: Evaluation of a bone mass increase with low-dose PTH in GST-RANKL mice; details: PTH 80 μg/kg; 1.0 mm

For parathyroid hormone [PTH], the “cortical bone density in the diaphysis, increase in GST-RANKL group” value ([1]; PTH 40 μg/kg) was 3%, the “serum ALP concentration in GST-RANKL group” value ([1]; PTH 40 μg/kg) was “tended to decrease” and the “cancellous bone density increase in GST-RANKL group vs PBS” value ([1]; PTH 40 μg/kg, 0.6 mm) was 25%. The “cortical bone mineral content increase in GST-RANKL group vs PBS” value ([1]; PTH 40 μg/kg, 0.6 mm) was 80%, the “cortical bone thickness increase in GST-RANKL group vs PBS” value ([1]; PTH 40 μg/kg, 0.6 mm) was 86% and the “total bone density increase in GST-RANKL group vs PBS” value (shortened to “total bone density increase … vs PBS”) ([1]; PTH 40 μg/kg, 0.6 mm) was 14%. For the same substance, the “cancellous bone density increase in GST-RANKL group vs PBS” value ([1]; PTH 40 μg/kg, 0.8 mm) was 28%, the “cortical bone density increase in GST-RANKL group vs PBS” value ([1]; PTH 40 μg/kg, 0.8 mm) was 4% and the “cortical bone mineral content increase in GST-RANKL group vs PBS” value ([1]; PTH 40 μg/kg, 0.8 mm) was 123%. For the same substance, the “cortical bone thickness increase in GST-RANKL group vs PBS” value ([1]; PTH 40 μg/kg, 0.8 mm) was 127%, the “total bone density increase … vs PBS” value ([1]; PTH 40 μg/kg, 0.8 mm) was 17% and the “cortical bone density increase in GST-RANKL group vs PBS” value ([1]; PTH 40 μg/kg, 1.0 mm) was 5%. The “cortical bone mineral content increase in GST-RANKL group vs PBS” value ([1]; PTH 40 μg/kg, 1.0 mm) was 100%, the “cortical bone thickness increase in GST-RANKL group vs PBS” value ([1]; PTH 40 μg/kg, 1.0 mm) was 98% and the “total bone density increase … vs PBS” value ([1]; PTH 40 μg/kg, 1.0 mm) was 19%. The “cortical bone density in the diaphysis, increase in GST-RANKL group” value ([1]; PTH 80 μg/kg) was 3%, the “cancellous bone density increase in GST-RANKL group” value ([1]; PTH 80 μg/kg, 0.6 mm) was 20% and the “cortical bone mineral content increase in GST-RANKL group” value ([1]; PTH 80 μg/kg, 0.6 mm) was 46%. The “cortical bone thickness increase in GST-RANKL group” value ([1]; PTH 80 μg/kg, 0.6 mm) was 50%, the “total bone density increase in GST-RANKL group” value ([1]; PTH 80 μg/kg, 0.6 mm) was 10% and the “cortical bone mineral content increase in GST-RANKL group” value ([1]; PTH 80 μg/kg, 0.8 mm) was 83%. For the same substance, the “cortical bone thickness increase in GST-RANKL group” value ([1]; PTH 80 μg/kg, 0.8 mm) was 89%, the “total bone density increase in GST-RANKL group” value ([1]; PTH 80 μg/kg, 0.8 mm) was 13% and the “cortical bone mineral content increase in GST-RANKL group” value ([1]; PTH 80 μg/kg, 1.0 mm) was 77%. For the same substance, the “cortical bone thickness increase in GST-RANKL group” value ([1]; PTH 80 μg/kg, 1.0 mm) was 79%, the “total bone density increase in GST-RANKL group” value ([1]; PTH 80 μg/kg, 1.0 mm) was 13% and the “serum ALP concentration in GST-RANKL group” value ([1]; PTH 80 μg/kg, p<0.01) was “significantly decreased”. For the same substance, the “serum Ca concentration in GST-RANKL group” value ([1]; PTH 80 μg/kg, p<0.05) was “slightly significant decrease”, the “serum TRAP-5b concentration” value ([1]; PTH 40 or 80 μg/kg s.c. 10 days) was “no significant changes” and the bone density decrease ([2]; PTH 160 μg/kg administered to the GST-RANKL+Sham group, p<0.05) was “significantly suppressed”. The femur bone density ([2]; PTH 160 μg/kg administered to the PBS+Sham group) was “significantly increased exclusively at the 1.0-mm point”, the “femur bone density increase” value ([2]; PTH 160 μg/kg in the OVX group) was “no significant difference” and the “serum TRAP-5b concentration, fold as high as the relevant group not treated with PTH” value ([2]; every PTH administration group, 160 μg/kg s.c. 10 consecutive days) was “approximately 1.5 fold”. For the same substance, the “cortical bone density increase in GST-RANKL administration group” value [3] was 3%.
